System: pigmented filamentous callus of Eucheuma
Assay: Enhancement of somatic embryogenesis and micro-propagule production in embedded pigmented callus cultures by plant growth regulators
Assay type: cell-based, Eucheuma striatum (=Kappaphycus alvarezii)
Conditions: 23° C., one month
Text: The production of micro-propagules clonally through somatic embryogenesis of pigmented callus has been established. The somatic embryogenesis and micro-propagule production may further be enhanced by subculturing thin section of pigmented filamentous callus blocks (2 mm×3 mm×2 mm) in 3 mm thick agar plates (0.3-0.6% agar) with PES medium as embedded cultures. The callus blocks implanted in an agar medium grew rapidly in one month and formed colored spots in an agar with abundantly growing branched filamentous pigmented callus. The newly regenerated filamentous callus from blocks eventually transformed to produce densely pigmented (dark brown colour) micro-colonies similar to somatic embryos in branches of some filaments. […] Transfer of such filamentous callus with somatic embryos from solid (agar plates) medium to liquid PES medium facilitated rapid growth and morphogenesis in micro-propagules.
The production of micro-propagules clonally through somatic embryogenesis of pigmented callus of Eucheuma has been carried out. The somatic embryogenesis and micro-propagule production may be enhanced by subculturing thin section of pigmented filamentous callus blocks (2 mm×3 mm×2 mm) in 3 mm thick agar plates (0.4% agar) with PES medium as embedded cultures at 23° C. under cool white fluorescent fights at 50 μmol photon m^−2s^−1 irradiance with a 12:12 light and dark cycle. […]

Compound	production of micro-propagules / formation of somatic embryos in pigmented filamentous callus (0.1 mg l-1 each of naphthalenacetic acid and 6-benzylaminopurine combined in 0.4% agar PES medium)	production of micro-propagules / formation of somatic embryos in pigmented filamentous callus (0.1, 1.0 mg l-1 naphthalenacetic acid alone in 0.4% agar PES medium)
c1ccc(CNc2ncnc3nc[nH]c23)cc1 [6-benzylaminopurine]	further enhanced	–
naphthalenacetic acid	–	further enhanced

From patent US6858430B1, “Process for cultivation of algae” (Council of Scientific and Industrial Research, priority 2000, dated 2005)
